Marks after values point to notes of the source that are not given here.

The subject of one data set is menschlichen Sebocyten. The data set is described as follows: Inhibition of sebocyte proliferation in vitro (sebocytes cultured on 3T3 fibroblast layer, cell count by haemocytometer). It is filed as cell-based. The note with it: amount inhibiting sebocyte proliferation by 50% versus solvent-treated control culture, read-out: ED₅₀. On the procedure: 22a, Abstract 46 beschriebenen Methode isoliert und auf einer Schicht von Mäusen-Fibroblasten 3T3 kultiviert. Durch enzymatische und mechanische Methoden wurde aus Hautgewebe eine Suspension von Sebocyten hergestellt. Dazu wurden die Zellen entweder in 2% Humanserum, 8% fetales Kälberserum und 4 µg/ml Dexamethason oder in 10% fetales Kälberserum und 4 µg/ml Dexamethason enthaltendem Iscove-Medium kultiviert
Den Kulturen wurden die Testverbindungen im Medium alle 48 Stunden zugegeben. Nach der letzten Zugabe wurden die Fibroblasten 3T3 mit 0,03% EDTA in PBS abgespült. Die zurückbleibenden Sebocyten-Kolonien wurden in 0,05% Trypsin/0,03% EDTA unter Bildung einer einheitlichen Zellensuspension von Sebocyten inkubiert. Die Zellen wurden dann verdünnt und mittels eines Hämocytometers gezählt.
Es wurden 10⁻² M äthanolische Lösungen der Testverbindungen vorbereitet und dann auf 10⁻⁶, 10⁻⁷, 10⁻⁸ und 10⁻⁹ M verdünnt.
Die Resultate sind in der nachstehenden Tabelle 1 als Menge der Verbindung, die die Proliferation der Sebocyten um 50% gegenüber einem Kontrollwert hemmen, angegeben. Der Kontrollwert wurde aus einer lediglich mit Lösungsmittel behandelten Zellenkultur erhalten. Tabelle 1

For data set [1], the system named is Talgdrüsen des Hamsterohrs. Kind of data set: Topical activity on sebaceous glands of the hamster ear (daily application for 4 weeks). The class given is in vivo. The note with it: change of sebaceous gland cross-section versus acetone controls. As for the experimental part:
Die topische Wirksamkeit von Verbindungen der Formel I gegen Akne wurde an Talgdrüsen des Hamsterohrs gemessen. Versuchstieren wurden 50 µl einer Lösung der Testverbindung und Kontrolltieren 50 µl Aceton täglich auf das Ohr appliziert. Nach 4 Wochen wurden die Tiere getötet. Die Fläche der Talgdrüsen auf den Ohren wurde ermittelt. In der Tabelle 2 sind die Resultate als %-Aenderung gegenüber Kontrolltieren der Veränderung des Querschnitts der Talgdrüsen auf dem Hamsterohr angegeben: Tabelle 2

Data set [2] is described as follows: Soft tissue calcification in rats (45Ca radioactivity in heart and kidneys). It is filed as in vivo, Ratten. To be noted: ratio relative to compound X (=1); for Verkalkungsverhältnis Subkutan: subcutaneous administration for 4 days; for Verkalkungsverhältnis Topisch: topical administration for 4 days. On the procedure: Zum Nachweis der Verkalkung von weichem Gewebe durch die Verbindungen der Formel I erhielten Ratten subkutane Injektionen von 40 µCi ⁴⁵Ca. Die Verbindungen wurden dann subkutan oder topisch während 4 Tagen den Tieren verabreicht. Die Ratten wurden 1 Tag nach der letzten Injektion getötet. Herz und Nieren wurden entfernt und mit Salpetersäure behandelt. Es wurde die Radioaktivität einer Menge von 0,2 ml dieser Präparation gemessen.

Data set [3] deals with Talgdrüsen des Hamsterohrs. The data set is described as follows: Effect on sebaceous glands of the hamster ear after oral administration (daily for 4 weeks). To be noted: change of sebaceous gland cross-section. It is filed as in vivo, syrischen Goldhamstern. On the procedure: Der Effekt von Verbindungen der Formel I auf die Talgdrüsen des Hamsterohrs nach oraler Verabreichung wurde ermittelt. Männlichen syrischen Goldhamstern wurden täglich 200 µl einer Lösung der Testverbindungen in Propylenglykol oral verabreicht. Nach 4 Wochen wurden die Tiere getötet. Die Fläche der Talgdrüsen auf den Ohren wurde ermittelt. Die Resultate sind in Tabelle 4 als Veränderung im Querschnitt der Talgdrüsen des Hamsterohrs angegeben: Tabelle 4

Where [4] appears, read: topical, 10,00 µg/Hamster daily.
Where [5] appears, read: oral, 5,00 µg/kg daily in propylene glycol.

As to `C=C1CC[C@H](O)C/C1=C/C=C1\CCC[C@]2(C)C([C@H](C)C/C=C/C(C)(C)O)=CC[C@@H]12` [Verbindung D, 25-Hydroxy-16,23E-bisdehydrocholecalciferol], the EC50 in the data set with menschlichen Sebocyten is > 1000 nM. Besides, the “% Aenderung” value in data set [1] (topical, 0,10 µg/Hamster daily) was -16%; in data set [1] (topical, 1,00 µg/Hamster daily), -16%; in data set [1] (setting [4]), -43%. In data set [2], the “Verkalkungsverhältnis Subkutan” value was >1400. Further, the “Verkalkungsverhältnis Topisch” value in data set [2] is >34. In addition, the “% Veränderung” value is -15* % in data set [3] (oral, 2,50 µg/kg daily in propylene glycol); -22** % in data set [3] (setting [5]); -27*** % in data set [3] (oral, 10,00 µg/kg daily in propylene glycol); -36*** % in data set [3] (oral, 20,00 µg/kg daily in propylene glycol).
With `C=C1/C(=C\C=C2/CCC[C@]3(C)C([C@H](C)CC#CC(C)(C)O)=CC[C@@H]23)C[C@@H](O)C[C@@H]1O` [Verbindung E, 1α,25-Dihydroxy-16-dehydro-23-didehydrocholecalciferol], the EC50 with menschlichen Sebocyten worked out at 1 nM. In addition, in data set [2], the “Verkalkungsverhältnis Subkutan” value amounted to 47 and the “Verkalkungsverhältnis Topisch” value is reported as > 1.
On to `C=C1/C(=C\C=C2/CCC[C@]3(C)C([C@H](C)CCCC(C)(C)O)=CC[C@@H]23)C[C@@H](O)C[C@@H]1O` [A, 1α,25-Dihydroxy-16-dehydrocholecalciferol], for which, in the data set with menschlichen Sebocyten, the EC50 is 1 nM.
As to `C=C1CC[C@H](O)C/C1=C/C=C1\CCC[C@]2(C)C([C@H](C)CC#CC(C)(C)O)=CC[C@@H]12` [F, 25-Hydroxy-16-dehydro-23-didehydrocholecalciferol], the EC50 in the data set on menschlichen Sebocyten worked out at 100 nM. Besides, the “% Aenderung” value in data set [1] (topical, 0,10 µg/Hamster daily) is given as -23%; in data set [1] (topical, 1,00 µg/Hamster daily), -40%; in data set [1] (setting [4]) it was -64%. Moreover, the “Verkalkungsverhältnis Subkutan” value in data set [2] is listed as >1400. Also, the “Verkalkungsverhältnis Topisch” value in data set [2] is >34. For the same molecule, the “% Veränderung” value in data set [3] (oral, 0,05 µg/kg daily in propylene glycol) is -16* %; in data set [3] (oral, 0,50 µg/kg daily in propylene glycol), -23** %; in data set [3] (setting [5]), -42*** %; in data set [3] (oral, 50,00 µg/kg daily in propylene glycol), -55*** %.
Take `C=C1/C(=C\C=C2/CCC[C@]3(C)[C@@H]([C@H](C)CCCC(C)(C)O)CC[C@@H]23)C[C@@H](O)C[C@@H]1O` [Verbindung X, 1α,25-Dihydroxycholecalciferol, reference compound]: the EC50 in the data set with menschlichen Sebocyten worked out at 5 nM. Also, in data set [2], the “Verkalkungsverhältnis Subkutan” value came out at 1 and the “Verkalkungsverhältnis Topisch” value stood at 1.
